Laboratory results from patent US20100204276A1, “INDOLE COMPOUNDS, A PROCESS FOR THEIR PREPARATION AND PHARMACEUTICAL COMPOSITIONS CONTAINING THEM” (LES LABORATOIRES SERVIER, priority 2006, published 2010).

Key:
[1] = molecular target: MT1 receptor (Homo sapiens, UniProt P48039); assay: Melatonin MT1 receptor binding study (2-[125I]-iodomelatonin competition); conditions: 2-[125I]-iodomelatonin as radioligand, triplicate
Protocol: (§1) The MT1 or MT2 receptor binding experiments are carried out using 2-[^125I]-iodomelatonin as reference radioligand. The radioactivity retained is determined using a liquid scintillation counter.
(§2) Competitive binding experiments are then carried out in triplicate using the various test compounds. A range of different concentrations is tested for each compound. The results enable the binding affinities (Ki) of the compounds tested to be determined.

[2] = molecular target: T1, MT2 receptor (Homo sapiens, UniProt P49286); assay: Melatonin MT2 receptor binding study (2-[125I]-iodomelatonin competition); conditions: 2-[125I]-iodomelatonin as radioligand, triplicate
T1 sequence (P49286 1-362): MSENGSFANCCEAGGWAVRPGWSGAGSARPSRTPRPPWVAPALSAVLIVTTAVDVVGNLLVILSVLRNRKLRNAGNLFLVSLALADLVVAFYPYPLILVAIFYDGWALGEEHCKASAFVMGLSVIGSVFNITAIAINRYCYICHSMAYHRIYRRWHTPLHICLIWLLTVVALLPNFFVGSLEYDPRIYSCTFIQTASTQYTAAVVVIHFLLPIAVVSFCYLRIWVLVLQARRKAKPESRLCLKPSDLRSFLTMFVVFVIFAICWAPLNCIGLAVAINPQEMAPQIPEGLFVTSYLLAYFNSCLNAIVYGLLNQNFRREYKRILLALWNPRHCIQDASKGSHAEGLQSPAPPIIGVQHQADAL
Protocol: as §1, §2

MT1 receptor, sequence (P48039 whole entry): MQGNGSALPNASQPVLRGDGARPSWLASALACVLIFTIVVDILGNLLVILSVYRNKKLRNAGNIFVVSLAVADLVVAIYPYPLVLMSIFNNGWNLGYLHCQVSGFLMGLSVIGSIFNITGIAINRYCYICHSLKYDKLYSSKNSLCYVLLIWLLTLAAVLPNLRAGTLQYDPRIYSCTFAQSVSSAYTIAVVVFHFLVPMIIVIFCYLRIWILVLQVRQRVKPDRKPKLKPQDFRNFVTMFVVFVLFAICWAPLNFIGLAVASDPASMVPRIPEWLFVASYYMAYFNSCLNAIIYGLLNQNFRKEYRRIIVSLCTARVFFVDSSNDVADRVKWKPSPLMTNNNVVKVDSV

Ki [1]: 11 nM | Ki [2]: 19 nM | melting point: 113 to 114 °C
SMILES: CCCC(=O)NCCc1c[nH]c2ccc(OCCN3CCCCC3)cc12 [Example 3, N-(2-{5-[2-(1-piperidinyl)ethoxy]-1H-indol-3-yl}ethyl)butanamide]
